Laboratory results published in patent publication US11578074B2, “Nitrogenous heterocyclic compound, preparation method, intermediate, composition, and application” (SHANGHAI PHARMACEUTICALS HOLDING CO., LTD., priority 2017, dated 2023).
Where two headings read alike, the source gives them in different places.

Assays:
ErbB2 kinase = target: T1, ErbB2 kinase (Homo sapiens, UniProt P04626); experiment: EGFR/ErbB2 enzymatic experiment (HTRF kinEASE-TK), ErbB2; type: biochemical; settings: ErbB2 kinase 0.06 ng/μL, ATP 4 μM; read-out: Kinase IC50 (nM) in vitro ErbB2
T1 construct: The final concentration of ErbB2 kinase was 0.06 ng/μL

EGFR kinase = EGFR kinase (Homo sapiens, UniProt P00533); experiment: EGFR/ErbB2 enzymatic experiment (HTRF kinEASE-TK), EGFR; type: biochemical; settings: EGFR kinase 0.06 units/μL, ATP 1.65 μM; read-out: Kinase IC50 (nM) in vitro EGFR
[1] = test system: N87 (human gastric cancer cell NCI-N87); experiment: In vitro proliferation inhibition assay of cell lines (CellTiter-Glo), N87; type: cell-based; settings: N87 cells, 72 hours
Procedure, shortened: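 Cells seeded overnight (BT-474 8.8×10^4 cells/mL, N87 6.6×10^4 cells/mL), then exposed to 9 compound concentrations in duplicate for 72 hours at 37° C, 5% CO2. Viability read by CellTiter-Glo luminescence.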

[2] = test system: BT-474 (human breast cancer cell); experiment: In vitro proliferation inhibition assay of cell lines (CellTiter-Glo), BT-474; type: cell-based; settings: BT-474 cells, 72 hours
Procedure, shortened: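 Cells were exposed to nine compound concentrations in duplicate for 72 h at 37 °C and 5% CO2. Viability was read with CellTiter-Glo reagent after equilibration at room temperature.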

CYP3A4 = target: T2, CYP3A4 (Homo sapiens, UniProt P08684); experiment: Direct inhibition (DI) of CYP3A4 in human liver microsomes; type: in vitro ADME; settings: human liver microsomes 0.2 mg/mL, 10 μM compound
T2 construct: A system of 100 μL human liver microsomes; from tissue; host or cells: human liver microsomes
Procedure: (§1) Study on Direct Inhibition (DI) of CYP3A4, CYP2D6, CYP2C9, CYP2C19, CYP1A2
(§2) A system of 100 μL human liver microsomes (final concentration: 0.2 mg/mL) was used for direct inhibition under warm incubation. The system contained NADPH (final concentration: 1 mM), 10 μM compound, a positive inhibitor cocktail (Ketoconazole 10 μM, Quinidine: 10 μM, Sulfaphenazole: 100 μM, Naphthoflavone: 10 μM, Tranylcypromene 1000 μM), a negative control 10 μM DMSO and mixed probe substrates (Midazolam 10 μM, Testosterone 100 μM, Dextromethophan 10 μM, Diclofenac 20 μM, Phenetin 100 μM, Mephenytoin 100 μM). The reaction was terminated after incubation for 20 minutes. The relative activity of the enzymes was calculated by measuring the relative production of metabolites.

CYP2D6 = target: T3, CYP2D6 (Homo sapiens, UniProt P10635); experiment: Direct inhibition (DI) of CYP2D6 in human liver microsomes; type: in vitro ADME; settings: probe Dextromethorphan, human liver microsomes 0.2 mg/mL, 10 μM compound, read-out: Direct inhibition (DI) 2D6 (Dextromethorphan)
T3 construct: A system of 100 μL human liver microsomes; from tissue; host or cells: human liver microsomes
Procedure: as §1, §2

CYP2C9 = target: T4, CYP2C9 (Homo sapiens, UniProt P11712); experiment: Direct inhibition (DI) of CYP2C9 in human liver microsomes; type: in vitro ADME; settings: probe Diclofenac, human liver microsomes 0.2 mg/mL, 10 μM compound, read-out: Direct inhibition (DI) 2C9 (Diclofenac)
T4 construct: A system of 100 μL human liver microsomes; from tissue; host or cells: human liver microsomes
Procedure: as §1, §2

CYP1A2 = target: T5, CYP1A2 (Homo sapiens, UniProt P05177); experiment: Direct inhibition (DI) of CYP1A2 in human liver microsomes; type: in vitro ADME; settings: probe Phenacetin, human liver microsomes 0.2 mg/mL, 10 μM compound, read-out: Direct inhibition (DI) 1A2 (Phenacetin)
T5 construct: A system of 100 μL human liver microsomes; from tissue; host or cells: human liver microsomes
T5 sequence (P05177 1-516): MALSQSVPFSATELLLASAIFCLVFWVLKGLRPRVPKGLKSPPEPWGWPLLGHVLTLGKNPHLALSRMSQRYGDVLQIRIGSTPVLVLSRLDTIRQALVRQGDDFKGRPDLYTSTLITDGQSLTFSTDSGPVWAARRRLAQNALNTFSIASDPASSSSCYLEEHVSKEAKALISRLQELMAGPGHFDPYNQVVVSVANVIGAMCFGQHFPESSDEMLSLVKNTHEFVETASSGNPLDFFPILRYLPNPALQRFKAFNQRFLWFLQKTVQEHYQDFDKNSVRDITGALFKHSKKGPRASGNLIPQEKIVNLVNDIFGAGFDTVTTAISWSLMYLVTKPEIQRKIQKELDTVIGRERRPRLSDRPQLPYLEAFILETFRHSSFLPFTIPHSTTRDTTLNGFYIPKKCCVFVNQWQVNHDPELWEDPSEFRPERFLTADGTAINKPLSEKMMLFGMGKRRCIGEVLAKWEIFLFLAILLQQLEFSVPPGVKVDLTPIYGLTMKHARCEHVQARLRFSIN
Procedure: as §1, §2

CYP2C19 = target: T6, CYP2C19 (Homo sapiens, UniProt P33261); experiment: Direct inhibition (DI) of CYP2C19 in human liver microsomes; type: in vitro ADME; settings: probe Mephenytoin, human liver microsomes 0.2 mg/mL, 10 μM compound, read-out: Direct inhibition (DI) 2C19 (Mephenytoin)
T6 construct: A system of 100 μL human liver microsomes; from tissue; host or cells: human liver microsomes
Procedure: as §1, §2

[3] = test system: HER2 overexpressing human gastric cancer NCI-N87 nude mice xenograft; experiment: HER2 overexpressing human gastric cancer NCI-N87 nude mice xenograft model; type: in vivo; settings: 10 mg/kg, continuous oral administration for 21 days
Source text: We have established nude mice xenograft model for HER2 overexpression.

[4] = probe Midazolam, read-out: Direct inhibition (DI) 3A4 (Midazolam)
[5] = probe Testosterone, read-out: Direct inhibition (DI) 3A4 (testosterone)

T4 sequence (P11712 whole entry): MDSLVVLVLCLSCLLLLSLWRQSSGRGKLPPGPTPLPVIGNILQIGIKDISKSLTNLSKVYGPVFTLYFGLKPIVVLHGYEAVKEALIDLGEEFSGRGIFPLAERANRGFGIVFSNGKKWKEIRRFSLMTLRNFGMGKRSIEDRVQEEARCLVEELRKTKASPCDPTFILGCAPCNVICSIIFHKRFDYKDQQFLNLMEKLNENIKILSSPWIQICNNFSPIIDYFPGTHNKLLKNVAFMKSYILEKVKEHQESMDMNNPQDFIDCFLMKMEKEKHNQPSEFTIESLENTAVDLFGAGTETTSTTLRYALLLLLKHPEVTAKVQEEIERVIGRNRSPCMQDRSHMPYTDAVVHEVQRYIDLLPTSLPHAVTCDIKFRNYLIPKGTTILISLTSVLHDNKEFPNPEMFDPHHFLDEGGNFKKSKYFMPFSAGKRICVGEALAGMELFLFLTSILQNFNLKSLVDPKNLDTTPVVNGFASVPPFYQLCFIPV
T6 sequence (P33261 whole entry): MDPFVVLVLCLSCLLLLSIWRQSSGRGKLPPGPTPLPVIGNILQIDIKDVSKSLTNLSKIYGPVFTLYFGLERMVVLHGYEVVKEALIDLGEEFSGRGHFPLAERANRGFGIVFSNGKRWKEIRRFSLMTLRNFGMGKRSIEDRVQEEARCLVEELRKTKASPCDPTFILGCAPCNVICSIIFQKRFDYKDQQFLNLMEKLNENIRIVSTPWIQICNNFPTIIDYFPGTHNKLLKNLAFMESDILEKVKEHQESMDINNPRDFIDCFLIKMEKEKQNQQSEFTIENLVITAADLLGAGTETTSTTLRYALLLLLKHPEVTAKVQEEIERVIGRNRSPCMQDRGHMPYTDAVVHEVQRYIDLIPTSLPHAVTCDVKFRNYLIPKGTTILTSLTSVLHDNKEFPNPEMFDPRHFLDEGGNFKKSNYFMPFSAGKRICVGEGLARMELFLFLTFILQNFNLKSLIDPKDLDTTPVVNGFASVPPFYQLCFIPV
T2 sequence (P08684 whole entry): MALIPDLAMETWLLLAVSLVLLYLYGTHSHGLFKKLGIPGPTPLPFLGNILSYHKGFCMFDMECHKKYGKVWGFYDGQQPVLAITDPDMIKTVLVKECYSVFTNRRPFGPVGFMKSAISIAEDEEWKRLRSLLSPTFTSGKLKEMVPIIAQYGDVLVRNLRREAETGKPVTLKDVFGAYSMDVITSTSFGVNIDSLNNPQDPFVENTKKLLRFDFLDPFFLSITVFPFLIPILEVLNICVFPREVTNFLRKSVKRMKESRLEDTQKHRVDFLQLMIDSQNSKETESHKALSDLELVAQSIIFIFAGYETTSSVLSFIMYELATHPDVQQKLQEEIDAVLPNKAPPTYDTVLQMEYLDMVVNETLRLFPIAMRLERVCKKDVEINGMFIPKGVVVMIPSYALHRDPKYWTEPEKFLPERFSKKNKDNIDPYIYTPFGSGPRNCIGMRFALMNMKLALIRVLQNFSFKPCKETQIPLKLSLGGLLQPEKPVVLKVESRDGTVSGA
Chain of EGFR kinase (P00533 25-1210): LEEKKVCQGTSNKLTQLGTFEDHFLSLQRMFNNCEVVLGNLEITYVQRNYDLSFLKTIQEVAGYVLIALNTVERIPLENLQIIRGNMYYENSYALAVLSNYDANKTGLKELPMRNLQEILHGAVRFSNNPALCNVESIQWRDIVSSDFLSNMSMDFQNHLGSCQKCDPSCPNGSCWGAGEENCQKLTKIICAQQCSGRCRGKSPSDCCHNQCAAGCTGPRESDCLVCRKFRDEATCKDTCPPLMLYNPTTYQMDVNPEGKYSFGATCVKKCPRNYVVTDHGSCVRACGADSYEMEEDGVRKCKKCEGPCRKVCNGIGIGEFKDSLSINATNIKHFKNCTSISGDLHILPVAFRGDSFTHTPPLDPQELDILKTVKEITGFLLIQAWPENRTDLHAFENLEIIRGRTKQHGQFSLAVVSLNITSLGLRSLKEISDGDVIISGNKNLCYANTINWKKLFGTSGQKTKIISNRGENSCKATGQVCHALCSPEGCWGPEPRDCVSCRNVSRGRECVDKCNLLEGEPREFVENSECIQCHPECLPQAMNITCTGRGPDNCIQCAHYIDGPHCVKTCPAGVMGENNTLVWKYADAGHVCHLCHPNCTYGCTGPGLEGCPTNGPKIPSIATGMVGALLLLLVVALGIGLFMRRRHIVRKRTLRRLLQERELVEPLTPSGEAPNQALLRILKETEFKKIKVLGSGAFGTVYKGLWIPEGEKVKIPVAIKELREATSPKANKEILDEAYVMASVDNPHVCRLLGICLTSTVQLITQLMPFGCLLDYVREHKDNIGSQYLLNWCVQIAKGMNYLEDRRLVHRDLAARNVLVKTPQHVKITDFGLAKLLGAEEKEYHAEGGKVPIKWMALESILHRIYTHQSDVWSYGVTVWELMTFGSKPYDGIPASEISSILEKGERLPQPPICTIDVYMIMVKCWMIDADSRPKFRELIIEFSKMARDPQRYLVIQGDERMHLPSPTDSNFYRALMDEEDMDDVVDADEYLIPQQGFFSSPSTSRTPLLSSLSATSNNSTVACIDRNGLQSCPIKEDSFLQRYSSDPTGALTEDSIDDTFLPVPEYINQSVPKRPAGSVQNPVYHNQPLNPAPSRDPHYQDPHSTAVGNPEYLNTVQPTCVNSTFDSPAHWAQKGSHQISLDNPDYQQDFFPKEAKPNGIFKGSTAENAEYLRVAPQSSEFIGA
T1 sequence (P04626 23-1255): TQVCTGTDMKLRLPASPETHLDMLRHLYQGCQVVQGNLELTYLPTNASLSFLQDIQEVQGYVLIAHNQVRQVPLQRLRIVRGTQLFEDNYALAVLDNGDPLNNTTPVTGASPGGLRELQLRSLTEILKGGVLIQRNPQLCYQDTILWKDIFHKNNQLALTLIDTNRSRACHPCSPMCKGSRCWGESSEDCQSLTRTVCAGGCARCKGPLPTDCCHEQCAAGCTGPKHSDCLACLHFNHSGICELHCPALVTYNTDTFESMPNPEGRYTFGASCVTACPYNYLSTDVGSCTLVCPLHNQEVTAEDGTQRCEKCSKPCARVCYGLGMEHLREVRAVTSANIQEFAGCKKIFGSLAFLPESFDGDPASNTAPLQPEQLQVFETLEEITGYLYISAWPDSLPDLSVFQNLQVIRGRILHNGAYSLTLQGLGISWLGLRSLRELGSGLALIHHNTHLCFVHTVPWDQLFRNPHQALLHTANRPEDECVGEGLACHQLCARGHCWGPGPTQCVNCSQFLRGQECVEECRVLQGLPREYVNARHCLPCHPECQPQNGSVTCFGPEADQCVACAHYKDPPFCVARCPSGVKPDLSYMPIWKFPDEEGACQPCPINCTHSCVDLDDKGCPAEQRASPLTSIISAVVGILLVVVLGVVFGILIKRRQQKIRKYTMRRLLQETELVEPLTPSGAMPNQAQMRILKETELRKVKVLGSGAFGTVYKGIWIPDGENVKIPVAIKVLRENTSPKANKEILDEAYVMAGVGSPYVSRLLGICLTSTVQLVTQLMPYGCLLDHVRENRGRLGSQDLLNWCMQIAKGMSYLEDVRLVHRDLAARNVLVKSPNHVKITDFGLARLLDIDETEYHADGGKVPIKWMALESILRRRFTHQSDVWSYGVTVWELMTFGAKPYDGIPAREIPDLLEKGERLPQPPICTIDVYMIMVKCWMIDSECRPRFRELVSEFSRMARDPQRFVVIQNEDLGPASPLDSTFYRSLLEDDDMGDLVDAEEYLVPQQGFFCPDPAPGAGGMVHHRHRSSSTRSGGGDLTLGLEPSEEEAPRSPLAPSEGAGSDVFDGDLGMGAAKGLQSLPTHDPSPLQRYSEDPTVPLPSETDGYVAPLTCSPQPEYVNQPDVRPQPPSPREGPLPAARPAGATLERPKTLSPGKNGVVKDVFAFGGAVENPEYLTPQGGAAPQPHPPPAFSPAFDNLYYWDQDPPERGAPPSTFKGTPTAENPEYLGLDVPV
T3 sequence (P10635 whole entry): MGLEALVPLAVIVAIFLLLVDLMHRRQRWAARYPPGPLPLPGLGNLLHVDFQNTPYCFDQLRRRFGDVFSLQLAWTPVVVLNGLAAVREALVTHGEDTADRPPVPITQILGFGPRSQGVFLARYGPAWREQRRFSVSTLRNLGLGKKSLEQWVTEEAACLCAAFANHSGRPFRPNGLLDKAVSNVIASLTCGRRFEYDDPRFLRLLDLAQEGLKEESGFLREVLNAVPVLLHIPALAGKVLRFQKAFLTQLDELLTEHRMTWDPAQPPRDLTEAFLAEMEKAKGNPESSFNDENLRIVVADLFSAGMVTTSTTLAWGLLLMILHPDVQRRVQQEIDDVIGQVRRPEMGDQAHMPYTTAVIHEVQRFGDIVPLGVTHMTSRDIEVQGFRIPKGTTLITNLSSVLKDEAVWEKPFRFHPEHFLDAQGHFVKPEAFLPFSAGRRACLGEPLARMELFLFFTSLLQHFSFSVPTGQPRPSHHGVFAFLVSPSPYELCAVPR

SMILES | IC50 (ErbB2 kinase) | IC50 (EGFR kinase) | IC50 [1] | IC50 [2] | inhibition at 20 min, 10 µM (CYP3A4; [4]) | inhibition at 20 min, 10 µM (CYP3A4; [5]) | inhibition at 20 min, 10 µM (CYP2D6) | inhibition at 20 min, 10 µM (CYP2C9) | inhibition at 20 min, 10 µM (CYP1A2) | inhibition at 20 min, 10 µM (CYP2C19) | tumor volume inhibition rate (GI %) [3]
Cc1cc(Nc2c(C#N)cnc3ccc(NC(=O)/C=C/[C@H]4CCCN4C)cc23)ccc1Oc1cc2nncn2cn1 [Final product of Embodiment 23, (R,E)-N-(4-((4-([1,2,4]triazolo[4,3-c]pyrimidin-7-yloxy)-3-methylphenyl)amino)-3-cyanoquinolin-6-yl)-3-(1-methylpyrrolidin-2-yl)acrylamide] | 7.56 nM | 1.62 nM | 5.43 nM | 4.2 nM | < 0% | 18% | 13% | 1% | < 0% | 10% | 
Cc1cc(Nc2ncnc3ccc(NC(=O)/C=C/[C@H]4CCCN4C)cc23)ccc1Oc1ccc2nccn2c1 [Final product of Embodiment 24] | 6.46 nM | 4.08 nM | 2.93 nM | 4.6 nM | 36% | 48% | 90% | 48% | 18% | 36% | 
CN1CCC[C@@H]1/C=C/C(=O)Nc1ccc2ncnc(Nc3ccc(Oc4ccn5ncnc5c4)c(Cl)c3)c2c1 [Final product of Embodiment 26, (R,E)-N-(4-((4-([1,2,4]triazolo[1,5-a]pyridin-7-yloxy)-3-chlorophenyl)amino)quinazolin-6-yl)-3-(1-methylpyrrolidin-2-yl)acrylamide] | 0.83 nM | 2.52 nM | 3.55 nM | 5.23 nM | < 0% | 5% | 85% | 19% | 2% | 28% | 
CCOc1cc2ncc(C#N)c(Nc3ccc(Oc4cc5nncn5cn4)c(C)c3)c2cc1NC(=O)/C=C/[C@H]1CCCN1 [Final product of Embodiment 32] | 3.13 nM | 1.06 nM | 4.2 nM | 4 nM | 8% | 11% | 6% | 66% | < 0% | 75% | 
CCOc1cc2ncc(C#N)c(Nc3ccc(Oc4cc5nncn5cn4)c(C)c3)c2cc1NC(=O)/C=C/[C@H]1CCCN1C [Final product of Embodiment 33] | 3.56 nM | 2.14 nM | 3.2 nM | 4.2 nM | 10% | 17% | 3% | 17% | < 0% | 49% | 
CCOc1cc2ncnc(Nc3ccc(Oc4ccn5ncnc5c4)c(C)c3)c2cc1NC(=O)/C=C/[C@H]1CCCN1 [Final product of Embodiment 38, (R,E)-N-(4-((4-([1,2,4]triazolo[1,5-a]pyridin-7-yloxy)-3-methylphenyl)amino)-7-ethoxyquinazolin-6-yl)-3-(pyrrolidin-2-yl)acrylamide] | 0.5 nM | 0.6 nM | 2.4 nM | 2.8 nM | 5% | 16% | 24% | 10% | < 0% | 45% | 
Cc1cc(Nc2ncnc3ccc(NC(=O)/C=C/[C@H]4CCCN4C)cc23)ccc1Oc1cc2nccn2cn1 [Final product of Embodiment 41] | 0.6 nM | 0.6 nM | 8.5 nM | 3.9 nM | < 0% | 6% | 71% | < 0% | < 0% | 1% | 
Cc1cc(Nc2ncnc3ccc(NC(=O)/C(F)=C/[C@H]4CCCN4C)cc23)ccc1Oc1cc2nncn2cn1 [Final product of Embodiment 43] | 2.6 nM | 4.7 nM | 1.3 nM | 1.8 nM | < 0% | < 0% | 69% | < 0% | < 0% | < 0% | 
CCOc1cc2ncnc(Nc3ccc(Oc4ccn5ncnc5c4)c(C)c3)c2cc1NC(=O)/C(F)=C\[C@H]1CCCN1C [Final product of Embodiment 44] | 2.4 nM | 32.6 nM | 1.2 nM | 2 nM | < 0% | 13% | 36% | 11% | 12% | 27% | 
CCOc1cc2ncnc(Nc3ccc(Oc4ccn5ncnc5c4)c(C)c3)c2cc1NC(=O)/C(F)=C/[C@@H]1CCCN1C [Final product of Embodiment 47] | 4.2 nM | 38.5 nM | 3.8 nM | 7.1 nM | 33% | 42% | 54% | 34% | 35% | 47% | 
CCOc1cc2ncc(C#N)c(Nc3ccc(OCc4ccccn4)c(Cl)c3)c2cc1NC(=O)/C=C/CN(C)C [Neratinib, reference compound] |  |  |  |  |  |  |  |  |  |  | 112.5%
